Patent US7655420B2, “Methods to increase or decrease bone density” (Celltech R & D, Inc., priority 2002, dated 2010)
Entries after “also recorded” stand apart in the source; their conditions may differ.

What was measured:
SOST expression = experiment: BMP-6 induction of SOST expression in hMSC cells with test compounds (RT-PCR); format: cell-based, human; conditions: for Results (effect on BMP-6 induction of SOST expression): BMP-6, 72 hrs; for induction of SOST expression by BMP-6 (BMP-induced SOST expression): 72 hrs, no single concentration stated in the sentence
Method: The previous example illustrates that SOST expression was enhanced by bone morphogenetic proteins and modulated by steroids such as dexamethasone. In this example, human MSC cells were incubated with bone morphogenetic proteins in the presence of various test agents to determine whether other steroids and compounds could affect the BMP-induction of SOST. SOST expression was monitored by reverse transcriptase polymerase chain reaction (RT-PCR).
Human mesenchymal cells (hMSCs) were plated in regular growth media containing 2% FCS and treated with BMP-6 either alone or in combination with the test compounds. The cells were harvested 72 hrs later and RNA was prepared for RT-PCR analysis of SOST expression.

[1] = test system: caspase activity in hMSC cells; experiment: apoptosis of hMSC cells by caspase activity (Homogeneous Caspase ELISA); format: cell-based, human; conditions: for human sclerostin-induced increase in caspase activity, effect of caspase inhibitors: hMSC cells, 24 hrs, Roche ELISA; for caspase activity: hMSC in osteoblast-inducing media, 20 μg/ml sclerostin or other protein, 24 hours
Method: Human mesenchymal (hMSC) cells were plated in Osteoblast-inducing media (Biowhittaker's MSCGM medium supplemented with 100 nM dexamethasone, 50 μg/ml ascorbic acid, and 10 mM β-glycerophosphate) at a density of 10,000 cells/cm^2 in 96-well dishes.
For apoptosis assays, cells were treated with sclerostin or commercially available preparations of the BMP antagonists noggin, chordin, gremlin or twisted gastrulation (Tsg) for 24 hours prior to assay for caspase activity. In some experiments, cells were treated for various times with a partially purified preparation of baculovirus-expressed human sclerostin (0 to 30 μg/ml) or an equal volume of a protein preparation purified from Sf9 conditioned media (control) in the absence or presence of Calbiochem's caspase inhibitors. Cells were harvested and processed for apoptosis assays using the Homogeneous Caspase ELISA (Roche) or Cell Death (Histone-Associated DNA Fragmentation, Roche).

C[C@]12CC[C@@H]3c4ccc(O)cc4C[C@@H](CCCCCCCCC[S+]([O-])CCCC(F)(F)C(F)(F)F)[C@H]3[C@@H]1CC[C@@H]2O (stereo partly shown) [ICI 182,780]
Results (effect on BMP-6 induction of SOST expression) (SOST expression; compound at 1 × 10^−6 M): minimal effects; also recorded: No Effect

Parathyroid Hormone (1-34): Calciotrophic Peptide (SVSEIQLMHNLGKHLNSMERVEWLRKKLQDVHNF; Parathyroid hormone; UniProt P01270 32-65, looked up, fragment)
Results (effect on BMP-6 induction of SOST expression) (SOST expression; compound at 1 × 10^−7 M): No Effect

COC(=O)C[C@H](NC(=O)[C@H](C)NC(=O)[C@@H](NC(=O)[C@H](Cc1ccc(O)cc1)NC(=O)OCc1ccccc1)C(C)C)C(=O)CF [Caspase-1, Inhibitor VI, reference compound]
human sclerostin-induced increase in caspase activity, effect of caspase inhibitors [1]: blocked | human sclerostin-induced increase in caspase activity, effect of caspase inhibitors ([1]; listed as Cas-1): efficiently blocked | human sclerostin-induced increase in caspase activity, effect of caspase inhibitors ([1]; listed as Caspase-1 inhibitor): effectively blocked

C[C@]12C=CC(=O)C=C1CC[C@H]1[C@@H]3C[C@@H](O)[C@](O)(C(=O)CO)[C@@]3(C)C[C@H](O)[C@@]12F [Triamcinolone]
induction of SOST expression by BMP-6 (BMP-induced SOST expression) (SOST expression): blocks | Results (effect on BMP-6 induction of SOST expression) (SOST expression; compound at 1 × 10^−7 M): blocked; also recorded: Inhibition | Results (effect on BMP-6 induction of SOST expression) (SOST expression; compound at 1 × 10^−7 M, listed as triamcinolone): blocked

CC[C@H](C)C(=O)O[C@H]1C[C@@H](C)C=C2C=C[C@H](C)[C@H](CC[C@@H]3C[C@@H](O)CC(=O)O3)[C@H]21 [Lovastatin/Mevinolin, Lovastatin]
Results (effect on BMP-6 induction of SOST expression) (SOST expression; compound at 1 × 10^−7 M): No Effect | Results (effect on BMP-6 induction of SOST expression) (SOST expression; compound at 1 × 10^−7 M, listed as lovastatin): minimal effects

CC1(C)O[C@@H]2C[C@H]3[C@@H]4C[C@H](F)C5=CC(=O)C=C[C@]5(C)[C@@]4(F)[C@@H](O)C[C@]3(C)[C@]2(C(=O)CO)O1 [Fluocinolone acetonide]
induction of SOST expression by BMP-6 (BMP-induced SOST expression) (SOST expression): blocks | Results (effect on BMP-6 induction of SOST expression) (SOST expression; compound at 1 × 10^−7 M): Inhibition | Results (effect on BMP-6 induction of SOST expression) (SOST expression; compound at 1 × 10^−7 M, listed as Fluo): blocked | Results (effect on BMP-6 induction of SOST expression) (SOST expression; compound at 1 × 10^−7 M, listed as fluocinolone acetonide): effectively blocked

C[C@H](CCC(=O)NCCS(=O)(=O)O)[C@H]1CC[C@H]2[C@@H]3[C@@H](O)C[C@@H]4C[C@H](O)CC[C@]4(C)[C@H]3CC[C@]12C [Tauroursodeoxycholic acid]
Results (effect on BMP-6 induction of SOST expression) (SOST expression; compound at 2 × 10^−6 M): No Effect | Results (effect on BMP-6 induction of SOST expression) (SOST expression; compound at 2 × 10^−6 M, listed as tauroursodeoxycholic acid): minimal effects | Results (effect on BMP-6 induction of SOST expression) (SOST expression; compound at 2 × 10^−7 M): No Effect

COc1cccc(-c2cc(=O)c3ccccc3o2)c1N [PD98059]
Results (effect on BMP-6 induction of SOST expression) (SOST expression; compound at 2 × 10^−6 M): No Effect

CC(=O)N[C@@H](CC(=O)O)C(=O)N[C@@H](CCC(=O)O)C(=O)N[C@H](C(=O)N[C@H](C=O)CC(=O)O)C(C)C [Caspase-3, Inhibitor I, reference compound]
human sclerostin-induced increase in caspase activity, effect of caspase inhibitors [1]: blocked | human sclerostin-induced increase in caspase activity, effect of caspase inhibitors ([1]; listed as Cas-3): efficiently blocked | human sclerostin-induced increase in caspase activity, effect of caspase inhibitors ([1]; listed as Caspase-3 inhibitor): effectively blocked

CCc1[nH]c(-c2ccc(OC)cc2)nc1-c1ccncc1 [SB202474]
Results (effect on BMP-6 induction of SOST expression) (SOST expression; compound at 2 × 10^−6 M): No Effect

CC(=O)S[C@@H]1CC2=CC(=O)CC[C@]2(C)[C@H]2CC[C@@]3(C)[C@@H](CC[C@@]34CCC(=O)O4)[C@H]12 [Spironolactone]
Results (effect on BMP-6 induction of SOST expression) (SOST expression; compound at 1 × 10^−6 M): No Effect | Results (effect on BMP-6 induction of SOST expression) (SOST expression; compound at 1 × 10^−7 M): No Effect

C[S+]([O-])c1ccc(-c2nc(-c3ccncc3)c(-c3ccc(F)cc3)[nH]2)cc1 (stereo not shown) [SB203580]
Results (effect on BMP-6 induction of SOST expression) (SOST expression; compound at 2 × 10^−6 M): No Effect

O=C1C=C(S(=O)(=O)O)c2ccccc2C1=O [1,2-napthoquinone-4-sulfate]
Results (effect on BMP-6 induction of SOST expression) (SOST expression; compound at 1 × 10^−6 M): No Effect | Results (effect on BMP-6 induction of SOST expression) (SOST expression; compound at 5 × 10^−6 M): No Effect

CCCCC[C@H](O)/C=C/[C@H]1[C@H](O)CC(=O)[C@@H]1C/C=C\CCCC(=O)O [Prostaglandin E2]
induction of SOST expression by BMP-6 (BMP-induced SOST expression) (SOST expression): blocks | Results (effect on BMP-6 induction of SOST expression) (SOST expression; compound at 1 × 10^−6 M): Inhibition | Results (effect on BMP-6 induction of SOST expression) (SOST expression; compound at 1 × 10^−6 M, listed as PGE2): blocked | Results (effect on BMP-6 induction of SOST expression) (SOST expression; compound at 1 × 10^−6 M, listed as prostaglandin E2): effectively blocked | Results (effect on BMP-6 induction of SOST expression) (SOST expression; compound at 1 × 10^−7 M): Inhibition

B1: gremlin: commercially available BMP antagonist (protein, UniProt O60565 25-184, looked up)
Gremlin-1: KKKGSQGAIPPPDKAQHNDSEQTQSPQQPGSRNRGRGQGRGTAMPGEEVLESSQEALHVTERKYLKRDWCKTQPLKQTIHEEGCNSRTIINRFCYGQCNSFYIPRHIRKEEGSFQSCSFCKPKKFTTMMVTLNCPELQPPTKKKRVTRVKQCRCISIDLD
caspase activity [1]: no increase; also recorded: no significant effect

B2: chordin: commercially available BMP antagonist (protein, UniProt Q9H2X0 27-955, looked up)
Chordin: AGPEPPVLPIRSEKEPLPVRGAAGCTFGGKVYALDETWHPDLGEPFGVMRCVLCACEAPQWGRRTRGPGRVSCKNIKPECPTPACGQPRQLPGHCCQTCPQERSSSERQPSGLSFEYPRDPEHRSYSDRGEPGAEERARGDGHTDFVALLTGPRSQAVARARVSLLRSSLRFSISYRRLDRPTRIRFSDSNGSVLFEHPAAPTQDGLVCGVWRAVPRLSLRLLRAEQLHVALVTLTHPSGEVWGPLIRHRALAAETFSAILTLEGPPQQGVGGITLLTLSDTEDSLHFLLLFRGLLEPRSGGLTQVPLRLQILHQGQLLRELQANVSAQEPGFAEVLPNLTVQEMDWLVLGELQMALEWAGRPGLRISGHIAARKSCDVLQSVLCGADALIPVQTGAAGSASLTLLGNGSLIYQVQVVGTSSEVVAMTLETKPQRRDQRTVLCHMAGLQPGGHTAVGICPGLGARGAHMLLQNELFLNVGTKDFPDGELRGHVAALPYCGHSARHDTLPVPLAGALVLPPVKSQAAGHAWLSLDTHCHLHYEVLLAGLGGSEQGTVTAHLLGPPGTPGPRRLLKGFYGSEAQGVVKDLEPELLRHLAKGMASLMITTKGSPRGELRGQVHIANQCEVGGLRLEAAGAEGVRALGAPDTASAAPPVVPGLPALAPAKPGGPGRPRDPNTCFFEGQQRPHGARWAPNYDPLCSLCTCQRRTVICDPVVCPPPSCPHPVQAPDQCCPVCPEKQDVRDLPGLPRSRDPGEGCYFDGDRSWRAAGTRWHPVVPPFGLIKCAVCTCKGGTGEVHCEKVQCPRLACAQPVRVNPTDCCKQCPVGSGAHPQLGDPMQADGPRGCRFAGQWFPESQSWHPSVPPFGEMSCITCRCGAGVPHCERDDCSLPLSCGSGKESRCCSRCTAHRRPAPETRTDPELEKEAEGS
caspase activity [1]: no increase; also recorded: no significant effect

B3: Tsg: twisted gastrulation, commercially available BMP antagonist (protein, UniProt Q9GZX9 26-223, looked up)
Twisted gastrulation protein …: CNKALCASDVSKCLIQELCQCRPGEGNCSCCKECMLCLGALWDECCDCVGMCNPRNYSDTPPTSKSTVEELHEPIPSLFRALTEGDTQLNWNIVSFPVAEELSHHENLVSFLETVNQPHHQNVSVPSNNVHAPYSSDKEHMCTVVYFDDCMSIHQCKISCESMGASKYRWFHNACCECIGPECIDYGSKTVKCMNCMF
caspase activity [1]: no increase; also recorded: no significant effect

B4: inactivated sclerostin: inactive preparation of sclerostin, as determined by lack of effects in other biological and biochemical assays (protein, UniProt Q9BQB4 24-213, looked up)
Sclerostin: QGWQAFKNDATEIIPELGEYPEPPPELENNKTMNRAENGGRPPHHPFETKDVSEYSCRELHFTRYVTDGPCRSAKPVTELVCSGQCGPARLLPNAIGRGKWWRPSGPDFRCIPDRYRAQRVQLLCPGGEAPRARKVRLVASCKCKRLTRFHNQSELKDFGTEAARPQKGRKPRPRARSAKANQAELENAY
modifications: inactivated preparation
caspase activity [1]: no significant effect | caspase activity ([1]; listed as inactive preparation of sclerostin): did not significantly affect
